Tests used:
Format in all cases: cell-based, human
SH-SY5Y cells = assay: Apoptosis of SH-SY5Y cells by cisplatin treatment (TUNEL staining); conditions: cisplatin final concentration 20 μM
Experimental: SH-SY5Y cells were cultured in the presence of cisplatin (final concentration: 20 μM). The cells were fixed with paraformaldehyde at prescribed time points after the start of culturing and subjected to TUNEL staining, and the TUNEL-positive cells were counted. […] The extent of cell death by cisplatin was detected.

[1] = test system: NEDL1 gene expression in SH-SY5Y cells; assay: Expression analysis by RT-PCR in cisplatin treated SH-SY5Y cells; conditions: cisplatin 20 μM, total RNA
Experimental: The RT-PCR, Western blotting, immunoprecipitation, luciferase reporter assay and cell fractionation were performed according to the procedure described in Ando et al., J. Biol. Chem., 279: 25549-25561, 2004. Colony formation was performed according to the procedure described in Ozaki et al., Cancer Res., 59: 5902-5907, 1999.
Under the same conditions as in Example 1, SH-SY5Y cells were treated with cisplatin and cells were recovered at a prescribed time point, after which the total RNA was extracted and expression of the NEDL1, NEDL2, NEDD4, p21^WAF1 and p53 genes was analyzed by RT-PCR. GAPDH was used as an expression level control.

[2] = test system: p21WAF1, phosphorylated p53, p53 and NEDL1 protein expression in SH-SY5Y cells; assay: Expression analysis by Western blotting in cisplatin treated SH-SY5Y cells; conditions: cisplatin 20 μM, total protein
Experimental: The RT-PCR, Western blotting, immunoprecipitation, luciferase reporter assay and cell fractionation were performed according to the procedure described in Ando et al., J. Biol. Chem., 279: 25549-25561, 2004. Colony formation was performed according to the procedure described in Ozaki et al., Cancer Res., 59: 5902-5907, 1999. Under the same conditions as in Example 1, SH-SY5Y cells were treated with cisplatin and cells were recovered at a prescribed time point, after which the total protein was extracted and the expression of p21^WAF1, phosphorylated p53 (p53 (Ser 15)), p53 and NEDL1 was analyzed by Western blotting. Actin was used as an expression level control.

N.N.[Cl][Pt][Cl] [cisplatin]
cell death (TUNEL-positive cells) (SH-SY5Y cells): detected
Expression of NEDL1 (RT-PCR) [1]: induced
Expression of NEDL1 (Western blotting) [2]: induced
Expression of p21WAF1 (Western blotting) [2]: induced
Expression of p53 (Western blotting) [2]: induced
Expression of phosphorylated p53 (p53 (Ser 15)) (Western blotting) [2]: induced

— patent US7985556B2, “Method of screening apoptosis accelerating compound or anti-apoptotic compound and method of determining malignancy of neurodegenerative disease” (Hisamitsu Pharmaceutical Co., Inc., priority 2005, dated 2011)
